The target of this assay is human JAK1 (a.a. 837-1142). The assay is described as follows: In vitro JAK kinase assay (HTRF, phosphorylation of a biotinylated peptide), JAK1. The following applies: measured at 1 mM ATP; JAK2 IC50 / JAK1 IC50. In kind it is biochemical. Summed up: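 Phosphorylation of a biotinylated peptide by purified His-tagged JAK catalytic domains (insect-cell baculovirus expression) ran 1 hr at room temperature. After stopping with EDTA, Eu-Py20 and SA-APC were bound for 40 minutes and HTRF measured.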

As for `N#CCC1(n2cc(-c3ncnc4[nH]ccc34)cn2)CN(C2CCN(S(=O)(=O)c3ccccc3C#N)CC2)C1` [Example 247, 2-[(4-{3-(cyanomethyl)-3-[4-(7H-pyrrolo[2,3-d]pyrimidin-4-yl)-1H-pyrazol-1-yl]azetidin-1-yl}piperidin-1-yl)sulfonyl]benzonitrile], the “IC50 Ratio JAK2/JAK1” value was found to be 5.1.
Take `N#CCC1(n2cc(-c3ncnc4[nH]ccc34)cn2)CN(C2CCN(S(=O)(=O)c3ccc(C#N)cc3)CC2)C1` [Example 249, 4-[(4-{3-(cyanomethyl)-3-[4-(7H-pyrrolo[2,3-d]pyrimidin-4-yl)-1H-pyrazol-1-yl]azetidin-1-yl}piperidin-1-yl)sulfonyl]benzonitrile]: the “IC50 Ratio JAK2/JAK1” value was found to be 2.1.
In the case of `CN(C)c1ccc(CN2CCC(N3CC(CC#N)(n4cc(-c5ncnc6[nH]ccc56)cn4)C3)CC2)c(F)c1C#N` [Example 209, 3-[(4-{3-(Cyanomethyl)-3-[4-(7H-pyrrolo[2,3-d]pyrimidin-4-yl)-1H-pyrazol-1-yl]azetidin-1-yl}piperidin-1-yl)methyl]-6-(dimethylamino)-2-fluorobenzonitrile] it was 19.0; in that of `CC1(N2CC(CC#N)(n3cc(-c4ncnc5[nH]ccc45)cn3)C2)CCN(C(=O)c2cccc(F)c2)CC1` [Example 152, {1-[1-(3-Fluorobenzoyl)-4-methylpiperidin-4-yl]-3-[4-(7H-pyrrolo[2,3-d]pyrimidin-4-yl)-1H-pyrazol-1-yl]azetidin-3-yl}acetonitrile], 4.0.
With `N#CCC1(n2cc(-c3c(F)cnc4[nH]ccc34)cn2)CN(C2CCN(C(=O)c3cc(F)cc(C#N)c3)CC2)C1` [Example 316, 3-[(4-{3-(cyanomethyl)-3-[4-(5-fluoro-1H-pyrrolo[2,3-b]pyridin-4-yl)-1H-pyrazol-1-yl]azetidin-1-yl}piperidin-1-yl)carbonyl]-5-fluorobenzonitrile], the “IC50 Ratio JAK2/JAK1” value was 9.5.
Consider `N#CCC1(n2cc(-c3ncnc4[nH]ccc34)cn2)CN(C2CCN(Cc3ccnc(Br)c3)CC2)C1` [Example 226, {1-{1-[(2-bromopyridin-4-yl)methyl]piperidin-4-yl}-3-[4-(7H-pyrrolo[2,3-d]pyrimidin-4-yl)-1H-pyrazol-1-yl]azetidin-3-yl}acetonitrile], for which the “IC50 Ratio JAK2/JAK1” value turned out to be 1.9.
To `N#CCC1(n2cc(-c3ncnc4[nH]ccc34)cn2)CN(C2CCN(C(=O)Nc3cccc(Cl)c3F)CC2)C1` [Example 177, N-(3-chloro-2-fluorophenyl)-4-{3-(cyanomethyl)-3-[4-(7H-pyrrolo[2,3-d]pyrimidin-4-yl)-1H-pyrazol-1-yl]azetidin-1-yl}piperidine-1-carboxamide] belongs 8.5; to `N#CCC1(n2cc(-c3ncnc4[nH]ccc34)cn2)CN(C2CCN(C(=O)c3sccc3Cl)CC2)C1` [Example 76, {1-{1-[(3-chloro-2-thienyl)carbonyl]piperidin-4-yl}-3-[4-(7H-pyrrolo[2,3-d]pyrimidin-4-yl)-1H-pyrazol-1-yl]azctidin-3-yl}acetonitrile], 5.5.
As to `N#CCC1(n2cc(-c3ncnc4[nH]ccc34)cn2)CN(C2CCN(C(=O)Nc3cc(F)cc(F)c3)CC2)C1` [Example 175, 4-{3-(cyanomethyl)-3-[4-(7H-pyrrolo[2,3-d]pyrimidin-4-yl)-1H-pyrazol-1-yl]azetidin-1-yl}-N-(3,5-difluorophenyl) piperidine-1-carboxamide], the “IC50 Ratio JAK2/JAK1” value is 3.6.
In the case of `N#CCC1(n2cc(-c3ncnc4[nH]ccc34)cn2)CN(C2CCN(C(=O)c3ccc(O)c(Cl)c3)CC2)C1` [Example 84, {1-[1-(3-chloro-4-hydroxybenzoyl)piperidin-4-yl]-3-[4-(7H-pyrrolo[2,3-d]pyrimidin-4-yl)-1H-pyrazol-1-yl]azetidin-3-yl}acetonitrile] it was 6.5; in that of `COc1ccc(C(=O)N2CCC(N3CC(CC#N)(n4cc(-c5ncnc6[nH]ccc56)cn4)C3)CC2)cc1F` [Example 5, {1-[1-(3-fluoro-4-methoxybenzoyl)piperidin-4-yl]-3-[4-(7H-pyrrolo[2,3-d]pyrimidin-4-yl)-1H-pyrazol-1-yl]azetidin-3-yl}acetonitrile], 12.0.
On to `N#CCC1(n2cc(-c3ncnc4[nH]ccc34)cn2)CN(C2CCN(C(=O)c3ccc(C(F)(F)F)c(F)c3)CC2)C1` [Example 52, {1-{1-[3-fluoro-4-(trifluoromethyl)benzoyl]piperidin-4-yl}-3-[4-(7H-pyrrolo[2,3-d]pyrimidin-4-yl)-1H-pyrazol-1-yl]azetidin-3-yl}acetonitrile], for which the “IC50 Ratio JAK2/JAK1” value stood at 4.4.
To `N#CCC1(n2cc(-c3ncnc4[nH]ccc34)cn2)CN(C2CC3CCC(C2)N3Cc2c(F)ccc(F)c2Cl)C1` (centres unmarked) [Example 241, {1-[8-(2-Chloro-3,6-difluorobenzyl)-8-azabicyclo[3.2.1]oct-3-yl]-3-[4-(7H-pyrrolo[2,3-d]pyrimidin-4-yl)-1H-pyrazol-1-yl]azetidin-3-yl}acetonitrile] belongs 3.8; to `N#CCC1(n2ccc(-c3ncnc4[nH]ccc34)c2)CN(C2CCN(C(=O)c3ccc(C#N)cc3F)CC2)C1` [Example 264, 4-[(4-{3-(cyanomethyl)-3-[3-(7H-pyrrolo[2,3-d]pyrimidin-4-yl)-1H-pyrrol-1-yl]azetidin-1-yl}piperidin-1-yl)carbonyl]-3-fluorobenzonitrile], 9.5; to `N#CCC1(n2cc(-c3ncnc4[nH]ccc34)cn2)CN(C2CCN(Cc3ccc(C#N)c(F)c3)CC2)C1` [Example 229, 4-[(4-{3-(cyanomethyl)-3-[4-(7H-pyrrolo[2,3-d]pyrimidin-4-yl)-1H-pyrazol-1-yl]azetidin-1-yl}piperidin-1-yl)methyl]-2-fluorobenzonitrile], 6.4.
To `Cc1cc(NC(=O)N2CCC(N3CC(CC#N)(n4cc(-c5ncnc6[nH]ccc56)cn4)C3)CC2)n(C)n1` [Example 197, 4-{3-(cyanomethyl)-3-[4-(7H-pyrrolo[2,3-d]pyrimidin-4-yl)-1H-pyrazol-1-yl]azetidin-1-yl}-N-(1,3-dimethyl-1H-pyrazol-5-yl)piperidine-1-carboxamide] belongs 3.2; to `N#CCC1(n2cc(-c3ncnc4[nH]ccc34)cn2)CN(C2CCN(C(=O)c3ccc(F)c(F)c3F)CC2)C1` [Example 46, {3-[4-(7H-pyrrolo[2,3-d]pyrimidin-4-yl)-1H-pyrazol-1-yl]-1-[1-(2,3,4-trifluorobenzoyl)piperidin-4-yl]azetidin-3-yl}acetonitrile], 6.3; to `N#CCC1(n2cc(-c3c(C#N)cnc4[nH]ccc34)cn2)CN(C2CCN(C(=O)c3ccc(C#N)c(F)c3)CC2)C1` [Example 334, 4-{1-[1-[1-(4-cyano-3-fluorobenzoyl)piperidin-4-yl]-3-(cyanomethyl)azetidin-3-yl]-1H-pyrazol-4-yl}-1H-pyrrolo[2,3-b]pyridine-5-carbonitrile], 4.3.
In the case of `N#CCC1(n2cc(-c3ncnc4[nH]ccc34)cn2)CN(C2CCN(C(=O)c3cc(F)cc(C(F)(F)F)c3)CC2)C1` [Example 23, {1-{1-[3-fluoro-5-(trifluoromethyl)benzoyl]piperidin-4-yl}-3-[4-(7H-pyrrolo[2,3-d]pyrimidin-4-yl)-1H-pyrazol-1-yl]azetidin-3-yl}acetonitrile] it was 6.7.
Regarding `N#CCC1(n2cc(-c3ncnc4[nH]ccc34)cn2)CN(C2CCN(C(=O)Nc3ccccc3OC(F)(F)F)CC2)C1` [Example 158, 4-{3-(cyanomethyl)-3-[4-(7H-pyrrolo[2,3-d]pyrimidin-4-yl)-1H-pyrazol-1-yl]azetidin-1-yl}-N-[2-(trifluoromethoxy)phenyl]piperidine-1-carboxamide], the “IC50 Ratio JAK2/JAK1” value is 12.0.
To `N#CCC1(n2cc(-c3ncnc4[nH]ccc34)cn2)CN(C2CCN(C(=O)c3cc(Cl)sc3Cl)CC2)C1` [Example 30, {1-{1-[(2,5-dichloro-3-thienyl)carbonyl]piperidin-4-yl}-3-[4-(7H-pyrrolo[2,3-d]pyrimidin-4-yl)-1H-pyrazol-1-yl]azetidin-3-yl}acetonitrile] belongs 2.8.
For the compound `Cc1ccc(C(=O)N2CCC(N3CC(CC#N)(n4cc(-c5ncnc6[nH]ccc56)cn4)C3)CC2)s1` [Example 80, {1-{1-[(5-methyl-2-thienyl)carbonyl]piperidin-4-yl}-3-[4-(7H-pyrrolo[2,3-d]pyrimidin-4-yl)-1H-pyrazol-1-yl]azetidin-3-yl}acetonitrile], the “IC50 Ratio JAK2/JAK1” value turned out to be 4.1.
In the case of `N#CCC1(n2cc(-c3ncnc4[nH]ccc34)cn2)CN(C2CCN(C(=O)Cc3c(Cl)cccc3Cl)CC2)C1` [Example 112, {1-{1-[(2,6-dichlorophenyl)acetyl]piperidin-4-yl}-3-[4-(7H-pyrrolo[2,3-d]pyrimidin-4-yl)-1H-pyrazol-1-yl]azetidin-3-yl} acetonitrile] it was 8.2; in that of `N#CCC1(n2cc(-c3ncnc4[nH]ccc34)cn2)CN(C2CCN(C(=O)c3ccc(-c4cc(F)cc(C#N)c4)c(F)c3)CC2)C1` [Example 128, 4′-[(4-{3-(cyanomethyl)-3-[4-(7H-pyrrolo[2,3-d]pyrimidin-4-yl)-1H-pyrazol-1-yl]azetidin-1-yl}piperidin-1-yl)carbonyl]-2′,5-difluorobiphenyl-3-carbonitrile], 3.5.
To `COc1ccc2nc(Cl)c(CN3CCC(N4CC(CC#N)(n5cc(-c6ncnc7[nH]ccc67)cn5)C4)CC3)cc2c1` [Example 238, {1-{1-[(2-chloro-6-methoxyquinolin-3-yl)methyl]piperidin-4-yl}-3-[4-(7H-pyrrolo[2,3-d]pyrimidin-4-yl)-1H-pyrazol-1-yl]azetidin-3-yl}acetonitrile] belongs 6.8; to `N#CCC1(n2cc(-c3c(C#N)cnc4[nH]ccc34)cn2)CN(C2CCN(C(=O)c3cc(F)cc(C#N)c3)CC2)C1` [Example 333, 4-{1-[1-[1-(3-cyano-5-fluorobenzoyl)piperidin-4-yl]-3-(cyanomethyl)azetidin-3-yl]-1H-pyrazol-4-yl}-1H-pyrrolo[2,3-b]pyridine-5-carbonitrile], 8.8.

Values taken from US10695337B2, “Piperidin-4-yl azetidine derivatives as JAK1 inhibitors” (Incyte Corporation, priority 2010, dated 2020).
